Where two headings read alike, the source gives them in different places.
Tests used:
[1] = test system: LAMSS; assay: Post-emergent Test III, herbicidal activity in wheat and barley; format: in vivo; details: for GR50 LAMSS / GR80 LAMSS: probit analysis; for pest or weed control at 35 g/ha: 35 g ai/ha; for pest or weed control at 70 g/ha: 70 g ai/ha
Outline: (§1)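 GR20, GR50, GR80 and GR90 come from probit analysis of visual injury scores (0 = none, 100 = complete kill) taken 21 d after treatment. Foliar application was by track sprayer delivering 187 L/ha at five rates, from high down to 1/16×, onto greenhouse plants at the 2–3 leaf stage, with solvent-blank controls.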

[2] = test system: VERPE: bird's-eye speedwell (veronica persica); assay: as above; format: in vivo; details: Table 8, 21 d; for GR50 VERPE: dose for 50 percent growth reduction; for GR50 VERPE / GR80 VERPE: probit analysis; for GR80 VERPE: dose for 80 percent growth reduction; for pest or weed control at 35 g/ha / pest or weed control at 70 g/ha: Veronica persica, post-emergence, 504 h, post-emergent, read-out: Visual Growth Reduction (%) 21 Days After Application VERPE; for pest or weed control at 35 g/ha: 35 g ai/ha; for pest or weed control at 70 g/ha: 70 g ai/ha
Outline: as §1

[3] = test system: SASKR: Russian thistle (Salsola iberica); assay: as above; format: in vivo; details: Table 8, 21 d; for pest or weed control at 35 g/ha / pest or weed control at 70 g/ha: Salsola tragus, post-emergence, 504 h, post-emergent, read-out: Visual Growth Reduction (%) 21 Days After Application SASKR; for pest or weed control at 35 g/ha: 35 g ai/ha; for pest or weed control at 70 g/ha: 70 g ai/ha; for GR50 SASKR: dose for 50 percent growth reduction; for GR50 SASKR / GR80 SASKR: probit analysis; for GR80 SASKR: dose for 80 percent growth reduction
Outline: as §1

[4] = test system: HORSS: barley, including spring and winter (Hordeum vulgare); assay: as above; format: in vivo; details: 21 d; for pest or weed control at 35 g/ha / pest or weed control at 70 g/ha: Hordeum vulgare, post-emergence, 504 h, post-emergent, read-out: Visual Growth Reduction (%) 21 Days After Application HORSS; for pest or weed control at 35 g/ha: 35 g ai/ha; for pest or weed control at 70 g/ha: 70 g ai/ha; for GR20 HORSS: dose for 20 percent growth reduction, probit analysis
Outline: as §1

[5] = test system: MATSS: scented mayweed (Matricaria chamomilla), pineappleweed (Matricaria matricarioides); assay: as above; format: in vivo; details: for pest or weed control at 35 g/ha: 35 g ai/ha; for pest or weed control at 70 g/ha: 70 g ai/ha; for GR50 MATSS / GR80 MATSS: probit analysis
Outline: as §1

[6] = test system: VIOSS: wild pansy (Viola tricolor), field violet (Viola arvensis); assay: as above; format: in vivo; details: Table 8, 21 d; for GR50 VIOSS: dose for 50 percent growth reduction; for GR50 VIOSS / GR80 VIOSS: probit analysis; for GR80 VIOSS: dose for 80 percent growth reduction; for pest or weed control at 35 g/ha / pest or weed control at 70 g/ha: Viola tricolor, post-emergence, 504 h, post-emergent, read-out: Visual Growth Reduction (%) 21 Days After Application VIOSS; for pest or weed control at 35 g/ha: 35 g ai/ha; for pest or weed control at 70 g/ha: 70 g ai/ha
Outline: as §1

[7] = test system: KCHSC: kochia (Kochia scoparia); assay: as above; format: in vivo; details: for pest or weed control at 35 g/ha: 35 g ai/ha; for pest or weed control at 70 g/ha: 70 g ai/ha; for GR50 KCHSC / GR80 KCHSC: probit analysis
Outline: as §1

[8] = test system: TRZSS: wheat, including spring and winter (Triticum aestivum); assay: as above; format: in vivo; details: 21 d; for GR20 TRZSS: dose for 20 percent growth reduction, probit analysis; for pest or weed control at 35 g/ha / pest or weed control at 70 g/ha: Triticum aestivum, post-emergence, 504 h, post-emergent, read-out: Visual Growth Reduction (%) 21 Days After Application TRZSS; for pest or weed control at 35 g/ha: 35 g ai/ha; for pest or weed control at 70 g/ha: 70 g ai/ha
Outline: as §1

[9] = as above; format: in vivo, Lolium multiflorum, Lolium rigidum; details: Lolium multiflorum, post-emergence, 504 h, read-out: Visual Growth Reduction (%) 21 Days After Application LOLSS; for pest or weed control at 35 g/ha: 35 g ai/ha; for pest or weed control at 70 g/ha: 70 g ai/ha
Outline: as §1

[10] = test system: SETVI: green foxtail (Setaria viridis); assay: as above; format: in vivo; details: Table 9, 21 d
Outline: as §1

[11] = test system: LOLSS: ryegrass including, Italian ryegrass (Lolium multiflorum), rigid ryegrass (Lolium rigidum), annual ryegrass (Lolium multiflorum subsp. Gaudini); assay: as above; format: in vivo; details: Table 9, probit analysis, 21 d
Outline: as §1

[12] = Table 8, dose for 50 percent growth reduction, 21 d
[13] = Table 8, dose for 80 percent growth reduction, 21 d
[14] = post-emergence, 504 h, Table 8, post-emergent, 21 d, read-out: Visual Growth Reduction (%) 21 Days After Application LAMSS
[15] = Matricaria chamomilla, post-emergence, 504 h, Table 8, post-emergent, 21 d, read-out: Visual Growth Reduction (%) 21 Days After Application MATSS
[16] = Bassia scoparia, post-emergence, 504 h, Table 8, post-emergent, 21 d, read-out: Visual Growth Reduction (%) 21 Days After Application KCHSC
[17] = Bassia scoparia, post-emergence, 504 h, Table 9, post-emergent, 21 d, read-out: Visual Growth Reduction (%) 21 Days After Application KCHSC
[18] = post-emergence, 504 h, read-out: Visual Growth Reduction (%) 21 Days After Application LAMSS
[19] = dose for growth reduction of 50 percent, 21 days after application
[20] = dose for growth reduction of 80 percent, 21 days after application
[21] = Matricaria chamomilla, post-emergence, 504 h, read-out: Visual Growth Reduction (%) 21 Days After Application MATSS
[22] = Bassia scoparia, post-emergence, 504 h, read-out: Visual Growth Reduction (%) 21 Days After Application KCHSC

Nc1cc(-c2ccc(Br)c(F)c2)nc(C(=O)O)c1Cl [Compound 110, 4-Amino-6-(4-bromo-3-fluorophenyl)-3-chloropicolinic acid]
GR50 LAMSS [1, 12]: 1 g ai/ha | GR80 LAMSS [1, 13]: 1 g ai/ha | pest or weed control at 35 g/ha [1, 14]: 95 to 100% | pest or weed control at 70 g/ha [1, 14]: 95 to 100% | GR50 VERPE [2]: >140 g ai/ha | GR80 VERPE [2]: >140 g ai/ha | pest or weed control at 35 g/ha [2]: 0 to 29% | pest or weed control at 70 g/ha [2]: 0 to 29% | pest or weed control at 35 g/ha [3]: 75 to 84% | pest or weed control at 70 g/ha [3]: 85 to 94% | GR50 SASKR [3]: 1 g ai/ha | GR80 SASKR [3]: 30 g ai/ha | pest or weed control at 35 g/ha ([4]; Table 8): 85 to 94% | pest or weed control at 70 g/ha ([4]; Table 8): 95 to 100% | GR20 HORSS ([4]; Table 8): 1 g ai/ha | pest or weed control at 35 g/ha [5, 15]: 60 to 74% | pest or weed control at 70 g/ha [5, 15]: 85 to 94% | GR50 MATSS [5, 12]: 10 g ai/ha | GR80 MATSS [5, 13]: 37 g ai/ha | GR50 VIOSS [6]: 51 g ai/ha | GR80 VIOSS [6]: 144 g ai/ha | pest or weed control at 35 g/ha [6]: 30 to 44% | pest or weed control at 70 g/ha [6]: 60 to 74% | pest or weed control at 35 g/ha [7, 16]: 95 to 100% | pest or weed control at 70 g/ha [7, 16]: 95 to 100% | GR50 KCHSC [7, 12]: 1 g ai/ha | GR80 KCHSC [7, 13]: 1 g ai/ha | GR20 TRZSS ([8]; Table 8): 1 g ai/ha | pest or weed control at 35 g/ha ([8]; Table 8): 85 to 94% | pest or weed control at 70 g/ha ([8]; Table 8): 85 to 94%

Nc1cc(-c2ccc(Br)cc2)nc(C(=O)O)c1Cl [Compound 168]
pest or weed control at 35 g/ha ([9]; Table 9, post-emergent, 21 d): 0 to 29% | pest or weed control at 70 g/ha ([9]; Table 9, post-emergent, 21 d): 45 to 59% | pest or weed control at 35 g/ha ([10]; Setaria viridis, post-emergence, 504 h, 35 g ai/ha, post-emergent, read-out: Visual Growth Reduction (%) 21 Days After Application SETVI): 45 to 59% | pest or weed control at 70 g/ha ([10]; Setaria viridis, post-emergence, 504 h, 70 g ai/ha, post-emergent, read-out: Visual Growth Reduction (%) 21 Days After Application SETVI): 60 to 74% | GR50 SETVI ([10]; dose for 50 percent growth reduction, probit analysis): 28 g ai/ha | GR80 SETVI ([10]; dose for 80 percent growth reduction, probit analysis): 70 g ai/ha | pest or weed control at 35 g/ha ([4]; Table 9): 85 to 94% | pest or weed control at 70 g/ha ([4]; Table 9): 95 to 100% | GR20 HORSS ([4]; Table 9): 1 g ai/ha | GR50 LOLSS ([11]; dose for 50 percent growth reduction): 108 g ai/ha | GR80 LOLSS ([11]; dose for 80 percent growth reduction): >140 g ai/ha | pest or weed control at 35 g/ha [7, 17]: 95 to 100% | pest or weed control at 70 g/ha [7, 17]: 95 to 100% | GR50 KCHSC ([7]; Table 9, dose for 50 percent growth reduction, 21 d): 5 g ai/ha | GR80 KCHSC ([7]; Table 9, dose for 80 percent growth reduction, 21 d): 15 g ai/ha | GR20 TRZSS ([8]; Table 9): 1 g ai/ha | pest or weed control at 35 g/ha ([8]; Table 9): 85 to 94% | pest or weed control at 70 g/ha ([8]; Table 9): 95 to 100%

COC(=O)c1nc(-c2ccc(F)cc2)c(F)c(N)c1Cl [Compound 204]
pest or weed control at 35 g/ha [1, 18]: 85 to 94% | pest or weed control at 70 g/ha [1, 18]: 95 to 100% | pest or weed control at 140 g/ha ([1]; post-emergence, 504 h, 140 g ai/ha, read-out: Visual Growth Reduction (%) 21 Days After Application LAMSS): 95 to 100% | GR50 LAMSS [1, 19]: 1 g ai/ha | GR80 LAMSS [1, 20]: 8 g ai/ha | pest or weed control at 35 g/ha [9]: 0 to 29% | pest or weed control at 70 g/ha [9]: 0 to 29% | pest or weed control at 140 g/ha ([9]; 140 g ai/ha): 0 to 29% | pest or weed control at 35 g/ha [5, 21]: 0 to 29% | pest or weed control at 70 g/ha [5, 21]: 0 to 29% | pest or weed control at 140 g/ha ([5]; Matricaria chamomilla, post-emergence, 504 h, 140 g ai/ha, read-out: Visual Growth Reduction (%) 21 Days After Application MATSS): 0 to 29% | GR50 MATSS [5, 19]: >140 g ai/ha | GR80 MATSS [5, 20]: >140 g ai/ha | pest or weed control at 35 g/ha [7, 22]: 85 to 94% | pest or weed control at 70 g/ha [7, 22]: 95 to 100% | pest or weed control at 140 g/ha ([7]; Bassia scoparia, post-emergence, 504 h, 140 g ai/ha, read-out: Visual Growth Reduction (%) 21 Days After Application KCHSC): 95 to 100% | GR50 KCHSC [7, 19]: 2 g ai/ha | GR80 KCHSC [7, 20]: 9 g ai/ha

COc1c(N)nc(-c2ccc(Br)c(F)c2)nc1C(=O)O [Compound 113, 6-Amino-2-(4-bromo-3-fluorophenyl)-5-methoxypyrimidine-4-carboxylic acid]
GR50 LAMSS [1, 12]: 1 g ai/ha | GR80 LAMSS [1, 13]: 4 g ai/ha | pest or weed control at 35 g/ha [1, 14]: 95 to 100% | pest or weed control at 70 g/ha [1, 14]: 95 to 100% | GR50 VERPE [2]: 3 g ai/ha | GR80 VERPE [2]: 18 g ai/ha | pest or weed control at 35 g/ha [2]: 85 to 94% | pest or weed control at 70 g/ha [2]: 85 to 94% | pest or weed control at 35 g/ha [3]: 75 to 84% | pest or weed control at 70 g/ha [3]: 85 to 94% | GR50 SASKR [3]: 5 g ai/ha | GR80 SASKR [3]: 36 g ai/ha | pest or weed control at 35 g/ha ([4]; Table 8): 85 to 94% | pest or weed control at 70 g/ha ([4]; Table 8): 95 to 100% | GR20 HORSS ([4]; Table 8): 1 g ai/ha | pest or weed control at 35 g/ha [5, 15]: 85 to 94% | pest or weed control at 70 g/ha [5, 15]: 95 to 100% | GR50 MATSS [5, 12]: 4 g ai/ha | GR80 MATSS [5, 13]: 15 g ai/ha | GR50 VIOSS [6]: 4 g ai/ha | GR80 VIOSS [6]: 11 g ai/ha | pest or weed control at 35 g/ha [6]: 95 to 100% | pest or weed control at 70 g/ha [6]: 95 to 100% | pest or weed control at 35 g/ha [7, 16]: 95 to 100% | pest or weed control at 70 g/ha [7, 16]: 95 to 100% | GR50 KCHSC [7, 12]: 3 g ai/ha | GR80 KCHSC [7, 13]: 10 g ai/ha | GR20 TRZSS ([8]; Table 8): 1 g ai/ha | pest or weed control at 35 g/ha ([8]; Table 8): 85 to 94% | pest or weed control at 70 g/ha ([8]; Table 8): 85 to 94%
